Measurements: PubChem BioAssay (NCI)
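Dose response: 5 concentrations. Exposure: 48 h. Format: 96-well plates. Endpoint: linear interpolation; highest concentration if not reached. At the GI50, growth is halved. The concentration for full growth arrest is given as TGI.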

What was measured:
Assay in all cases: DTP human tumour cell line panel, 48 h
SK-MEL-2 melanoma = test system: SK-MEL-2 melanoma
MDA-MB-231 breast = test system: MDA-MB-231 breast
MDA-MB-435 = test system: MDA-MB-435
HOP-62 NSCLC = test system: HOP-62 NSCLC
LOX IMVI melanoma = test system: LOX IMVI melanoma
SK-MEL-28 melanoma = test system: SK-MEL-28 melanoma
OVCAR-3 ovarian = test system: OVCAR-3 ovarian
UACC-62 melanoma = test system: UACC-62 melanoma
SNB-78 CNS = test system: SNB-78 CNS
DMS 273 small cell lung = test system: DMS 273 small cell lung
HOP-18 NSCLC = test system: HOP-18 NSCLC
M19-MEL melanoma = test system: M19-MEL melanoma

SMILES	GI50 (SK-MEL-2 melanoma) [µM]	TGI (SK-MEL-2 melanoma) [µM]	GI50 (MDA-MB-231 breast) [µM]	TGI (MDA-MB-231 breast) [µM]	GI50 (MDA-MB-435) [µM]	TGI (MDA-MB-435) [µM]	GI50 (HOP-62 NSCLC) [µM]	TGI (HOP-62 NSCLC) [µM]	GI50 (LOX IMVI melanoma) [µM]	TGI (LOX IMVI melanoma) [µM]	GI50 (SK-MEL-28 melanoma) [µM]	TGI (SK-MEL-28 melanoma) [µM]	GI50 (OVCAR-3 ovarian) [µM]	TGI (OVCAR-3 ovarian) [µM]	GI50 (UACC-62 melanoma) [µM]	TGI (UACC-62 melanoma) [µM]	TGI (SNB-78 CNS) [µM]	TGI (DMS 273 small cell lung) [µM]	TGI (HOP-18 NSCLC) [µM]	TGI (M19-MEL melanoma) [µM]
COc1ccc(-n2cc(-c3ccc(OC)c(OC)c3)nc2SCc2ccccc2)cc1Cl	16.3	56.3	26.9	> 100	27.8	> 100	28.3	> 100	34.7	> 100	27.4	> 100	20.6	> 100	20.8	> 100				
C[C@]12CC[C@H](O)CC1=CC[C@@H]1[C@@H]2CC[C@]2(C)C(=O)CC[C@@H]12		> 100				> 100				> 100		> 100		> 100		> 100				
C=CCC1=CC2(OC)C(=O)C(OC)(OC)C1C1C(OC)(OC)C(=O)C(OC)=CC12CC=C (centres undefined)		> 100		> 100		> 100		> 100		> 100		> 100		> 100		> 100				
FC(F)(F)C1=NC(=NNc2nnc(-c3ccccc3)c(-c3ccccc3)n2)N=C(C(F)(F)F)C1		> 100						> 86.7		> 100		> 100		> 100		30	> 100	> 100	> 100	> 68.4
CCCCOc1ccc(S(=O)(=O)/N=C(\NN)Nc2ccc(Cl)cc2)cc1		> 100		46.3				38.5		35.6		> 100		46.8		> 100				
ClCC1(CCl)COC1				> 100		> 100				> 100		> 100		> 100						
O=c1cc(-c2nc3ccccc3[nH]2)[nH]c2nc(-c3nc4ccccc4[nH]3)cc(-c3ccc(Cl)cc3)c12		30.5		35.7		35.3		54.7		31.8				63.4		33.2				
CC[N+](CC)(CC)/C(=N/S(=O)(=O)c1cc(C)c(Cl)cc1S)[N-]S(=O)(=O)c1ccc(Cl)cc1		> 100		> 100		> 100		> 100		> 100		> 100		> 100						
Cc1onc(-c2c(F)cccc2Cl)c1C(=O)N[C@@H]1C(=O)N2[C@@H]1SC(C)(C)[C@@H]2C(=O)O		> 100		> 100		> 100		> 100				> 100		> 100		> 100				
Cc1cc(-c2nc3cc(F)ccc3s2)ccc1NC(=O)C(C)N (centres undefined)		7.87		7.7		10.5		8.32		10.1		11		7.32		7.7				
COc1cc(NCc2ccc3n2-c2ccccc2OC3)cc(OC)c1OC		69.2		34.1		33.8		> 100		27.4		> 100		75.5		43.4				
COc1c2ccoc2c(S(=O)(=O)Nc2ccc(Cl)cc2)c2oc(C)cc(=O)c12		> 100						> 100		> 100		> 100		> 100		> 100	> 100	> 100	> 100	> 100
